Our source for the MIC values is ChEMBL document CHEMBL5244219, “Recent developments of quinolone-based derivatives and their activities against Escherichia coli” (Eur J Med Chem, 2018).

Values after ≈ are worked out from the molar mass of the structure shown.

One assay deals with Escherichia coli. Briefly: Antibacterial activity against Escherichia coli assessed as bacterial growth inhibition incubated for 24 hrs by agar streak dilution method. It counts as functional.
As to `CCn1cc(C(=O)O)c(=O)c2cc(F)c(N3CCN(C4SCC(=O)N4c4nc5ccc(F)cc5s4)CC3)cc21` (stereo unspecified), the MIC worked out at 2 µg/mL (≈ 3.5 µM).

Take `CCn1cc(C(=O)O)c(=O)c2cc(F)c(N3CCN(C4SCC(=O)N4c4nc5ccc(Br)cc5s4)CC3)cc21` (stereo unspecified): the MIC turned out to be 2 µg/mL (≈ 3.16 µM).

Consider `CC(=O)Nc1ccc2nc(N3C(=O)CSC3N3CCN(c4cc5c(cc4F)c(=O)c(C(=O)O)cn5C4CC4)CC3)sc2c1` (stereo unspecified), for which the MIC was found to be 2 µg/mL (≈ 3.21 µM).

In the case of `O=C(O)c1cn(C2CC2)c2cc(N3CCN(C4SCC(=O)N4c4nc5ccc(F)cc5s4)CC3)c(F)cc2c1=O` (stereo unspecified), the MIC worked out at 2 µg/mL (≈ 3.43 µM).

As for `CCn1cc(C(=O)O)c(=O)c2cc(F)c(N3CCN(C4SCC(=O)N4c4nc5ccc(C#N)cc5s4)CC3)cc21` (stereo unspecified), the MIC was 2 µg/mL (≈ 3.46 µM).

As for `CCn1cc(C(=O)O)c(=O)c2cc(F)c(N3CCN(C4SCC(=O)N4c4nc5ccc(NC(C)=O)cc5s4)CC3)cc21` (stereo unspecified), the MIC amounted to 2 µg/mL (≈ 3.27 µM).

With `CCn1cc(C(=O)O)c(=O)c2cc(F)c(N3CCN(C4SCC(=O)N4c4nc5ccc(OC)cc5s4)CC3)cc21` (stereo unspecified), the MIC was found to be 2 µg/mL (≈ 3.43 µM).

For `CCn1cc(C(=O)O)c(=O)c2cc(F)c(N3CCN(C4SCC(=O)N4c4nc5ccc([N+](=O)[O-])cc5s4)CC3)cc21` (stereo unspecified), the MIC amounted to 2 µg/mL (≈ 3.34 µM).

Take `N#Cc1ccc2nc(N3C(=O)CSC3N3CCN(c4cc5c(cc4F)c(=O)c(C(=O)O)cn5C4CC4)CC3)sc2c1` (stereo unspecified): the MIC was 2 µg/mL (≈ 3.39 µM).

In the case of `CCOc1ccc2nc(N3C(=O)CSC3N3CCN(c4cc5c(cc4F)c(=O)c(C(=O)O)cn5CC)CC3)sc2c1` (stereo unspecified), the MIC was determined as 2 µg/mL (≈ 3.35 µM).

Take `O=C(O)c1cn(C2CC2)c2cc(N3CCN(C4SCC(=O)N4c4nc5ccc([N+](=O)[O-])cc5s4)CC3)c(F)cc2c1=O` (stereo unspecified): the MIC came to 2 µg/mL (≈ 3.28 µM).

In the case of `O=C(O)c1cn(C2CC2)c2cc(N3CCN(C4SCC(=O)N4c4nc5ccc(Br)cc5s4)CC3)c(F)cc2c1=O` (stereo unspecified), the MIC is 2 µg/mL (≈ 3.1 µM).

In the next assay the test system is Escherichia coli. Description: Antibacterial activity against Escherichia coli assessed as bacterial growth inhibition incubated for 18 hrs by twofold serial dilution assay. It counts as functional.
In the case of `O=C(CN1CCN(c2cc3c(cc2F)c(=O)c(C(=O)O)cn3C2CC2)CC1)c1cccs1`, the MIC was 0.0075 µg/mL (≈ 0.0165 µM).

Turning to `O=C(O)c1cn(C2CC2)c2cc(N3CCN(C/C(=N/O)c4ccoc4)CC3)c(F)cc2c1=O`, the MIC was 0.049 µg/mL (≈ 0.108 µM).

On to `CCn1cc(C(=O)O)c(=O)c2cc(F)c(N3CCN(CC(=O)c4ccoc4)CC3)nc21`, for which the MIC was 0.049 µg/mL (≈ 0.114 µM).

Consider `CO/N=C(/CN1CCN(c2cc3c(cc2F)c(=O)c(C(=O)O)cn3C2CC2)CC1)c1cccs1`, for which the MIC is 0.0075 µg/mL (≈ 0.0155 µM).

Take `CCn1cc(C(=O)O)c(=O)c2cc(F)c(N3CCN(C/C(=N/OCc4ccccc4)c4ccoc4)CC3)cc21`: the MIC is 0.049 µg/mL (≈ 0.092 µM).

As to `CCn1cc(C(=O)O)c(=O)c2cc(F)c(N3CCN(C/C(=N/OCc4ccccc4)c4ccoc4)CC3)nc21`, the MIC is 0.049 µg/mL (≈ 0.0918 µM).

With `O=C(O)c1cn(C2CC2)c2nc(N3CCN(C/C(=N/OCc4ccccc4)c4ccoc4)CC3)c(F)cc2c1=O`, the MIC was 0.049 µg/mL (≈ 0.0898 µM).

In the case of `CCn1cc(C(=O)O)c(=O)c2cc(F)c(N3CCN(C/C(=N/O)c4ccoc4)CC3)cc21`, the MIC is 0.049 µg/mL (≈ 0.111 µM).

In the case of `O=C(O)c1cn(C2CC2)c2c(F)c(N3CCCNCC3)c(F)cc2c1=O`, the MIC was determined as 0.03 µg/mL (≈ 0.0826 µM).

With `O=C(CN1CCN(c2cc3c(cc2F)c(=O)c(C(=O)O)cn3C2CC2)CC1)c1ccoc1`, the MIC worked out at 0.049 µg/mL (≈ 0.112 µM).

Consider `O=C(O)c1cn(C2CC2)c2c(F)c(N3CCNCC(F)C3)c(F)cc2c1=O` (stereo unspecified), for which the MIC came out at 0.03 µg/mL (≈ 0.0787 µM).

On to `CCn1cc(C(=O)O)c(=O)c2cc(F)c(N3CCN(C/C(=N/O)c4ccoc4)CC3)nc21`, for which the MIC came to 0.049 µg/mL (≈ 0.111 µM).

Turning to `O=C(O)c1cn(C2CC2)c2c(F)c(N3CCNCC(O)C3)c(F)cc2c1=O` (stereo unspecified), the MIC came to 0.25 µg/mL (≈ 0.659 µM).

As for `CCn1cc(C(=O)O)c(=O)c2cc(F)c(N3CCNCC3)nc21` [ENOXACIN], the MIC came out at 0.13 µg/mL (≈ 0.406 µM).

The next assay deals with Escherichia coli. Description: Antibacterial activity against Escherichia coli MTCC 739 assessed as bacterial growth inhibition incubated for 24 hrs by spectrophotometric method. In kind it is functional.
As for `COc1ccc(N2CCN(Cn3nc(COc4cc(=O)n(C)c5ccccc45)sc3=S)CC2)cc1`, the MIC amounted to 25 µg/mL (≈ 49.1 µM).

As for `Cn1c(=O)cc(OCc2nn(CN3CCN(c4ccc(C(F)(F)F)cc4)CC3)c(=S)s2)c2ccccc21`, the MIC was 25 µg/mL (≈ 45.7 µM).

On to `Cn1c(=O)cc(OCc2nn(CN3CCN(c4ccc(F)cc4)CC3)c(=S)o2)c2ccccc21`, for which the MIC turned out to be 25 µg/mL (≈ 51.9 µM).

For `Cn1c(=O)cc(OCc2nn(CN3CCN(c4ccc(F)cc4)CC3)c(=S)s2)c2ccccc21`, the MIC came to 25 µg/mL (≈ 50.2 µM).

As for `Cn1c(=O)cc(OCc2nn(CN3CCN(c4cccc(C(F)(F)F)c4)CC3)c(=S)s2)c2ccccc21`, the MIC turned out to be 25 µg/mL (≈ 45.7 µM).

Consider `Cn1c(=O)cc(OCc2nn(CN3CCN(c4ccc(C(F)(F)F)cc4)CC3)c(=S)o2)c2ccccc21`, for which the MIC amounted to 25 µg/mL (≈ 47 µM).

On to `COc1ccc(N2CCN(Cn3nc(COc4cc(=O)n(C)c5ccccc45)oc3=S)CC2)cc1`, for which the MIC turned out to be 25 µg/mL (≈ 50.6 µM).

As for `Cn1c(=O)cc(OCc2nn(CN3CCN(c4cccc(C(F)(F)F)c4)CC3)c(=S)o2)c2ccccc21`, the MIC was 25 µg/mL (≈ 47 µM).

In the case of `Cn1c(=O)cc(OCc2nn(CN3CCN(c4ccccc4F)CC3)c(=S)s2)c2ccccc21`, the MIC worked out at 25 µg/mL (≈ 50.2 µM).

As to `Cn1c(=O)cc(OCc2nn(CN3CCN(c4ccccc4F)CC3)c(=S)o2)c2ccccc21`, the MIC came to 25 µg/mL (≈ 51.9 µM).

A word on the MIC: it is the lowest concentration found to suppress growth.
